Activity calls are given as the source filed them. The calls are words filed in the database; no cut-off is given here.
Key:
[1] = biological target: Rho-related GTP-binding protein RhoB (Homo sapiens) (UniProt P62745); experiment: Transactivation of RhoB (unknown origin) transfected in human HeLa cells at 5 uM measured over 10 secs by dual luciferase reporter gene assay; format: cell-based
NCI-H23 [2] = experiment: Growth inhibition of human NCI-H23 cells after 48 hrs by SRB assay; format: functional; settings: NCI-H23, 48 h
PC-3 [3] = experiment: Growth inhibition of human PC3 cells at 1 uM after 48 hrs by SRB assay; values are per cent of control; settings: PC-3, 48 h
HCT-15 [4] = experiment: Growth inhibition of human HCT15 cells after 48 hrs by SRB assay; format: functional; settings: HCT-15, 48 h
NCI-H23 [5] = experiment: Growth inhibition of human NCI-H23 cells at 1 uM after 48 hrs by SRB assay; values are per cent of control; settings: NCI-H23, 48 h
NCI-H23 [6] = experiment: Growth inhibition of human NCI-H23 cells at 0.1 uM after 48 hrs by SRB assay; values are per cent of control; settings: NCI-H23, 48 h
NUGC-3 [7] = experiment: Growth inhibition of human NUGC3 cells after 48 hrs by SRB assay; format: functional; settings: NUGC-3, 48 h
NCI-H23 [8] = experiment: Growth inhibition of human NCI-H23 cells at 3 uM after 48 hrs by SRB assay; values are per cent of control; settings: NCI-H23, 48 h
NCI-H23 [9] = experiment: Growth of human NCI-H23 cells at 0.3 uM after 48 hrs by SRB assay; settings: NCI-H23, 48 h
HCT-15 [10] = experiment: Growth of human HCT15 cells at 0.3 uM after 48 hrs by SRB assay; settings: HCT-15, 48 h
ACHN [11] = experiment: Growth inhibition of human ACHN cells after 48 hrs by SRB assay; format: functional
MDA-MB-231 [12] = experiment: Growth inhibition of human MDA-MB-231 cells at 0.3 uM after 48 hrs by SRB assay; values are per cent of control; settings: MDA-MB-231, 48 h
HCT-15 [13] = experiment: Growth inhibition of human HCT15 cells at 10 uM after 48 hrs by SRB assay; values are per cent of control; settings: HCT-15, 48 h
NUGC-3 [14] = experiment: Growth inhibition of human NUGC3 cells at 10 uM after 48 hrs by SRB assay; values are per cent of control; settings: NUGC-3, 48 h
ACHN [15] = experiment: Growth inhibition of human ACHN cells at 3 uM after 48 hrs by SRB assay; values are per cent of control
ACHN [16] = experiment: Growth of human ACHN cells at 10 uM after 48 hrs by SRB assay
NUGC-3 [17] = experiment: Growth of human NUGC3 cells at 0.3 uM after 48 hrs by SRB assay; settings: NUGC-3, 48 h
MDA-MB-231 [18] = experiment: Growth inhibition of human MDA-MB-231 cells after 48 hrs by SRB assay; format: functional; settings: MDA-MB-231, 48 h
PC-3 [19] = experiment: Growth of human PC3 cells at 10 uM after 48 hrs by SRB assay; settings: PC-3, 48 h
ACHN [20] = experiment: Growth of human ACHN cells at 0.3 uM after 48 hrs by SRB assay
NUGC-3 [21] = experiment: Growth of human NUGC3 cells at 1 uM after 48 hrs by SRB assay; settings: NUGC-3, 48 h
NCI-H23 [22] = experiment: Growth of human NCI-H23 cells at 10 uM after 48 hrs by SRB assay; settings: NCI-H23, 48 h
PC-3 [23] = experiment: Growth inhibition of human PC3 cells at 3 uM after 48 hrs by SRB assay; values are per cent of control; settings: PC-3, 48 h
PC-3 [24] = experiment: Growth inhibition of human PC3 cells at 0.3 uM after 48 hrs by SRB assay; values are per cent of control; settings: PC-3, 48 h
ACHN [25] = experiment: Growth of human ACHN cells at 0.1 uM after 48 hrs by SRB assay
NUGC-3 [26] = experiment: Growth of human NUGC3 cells at 0.1 uM after 48 hrs by SRB assay; settings: NUGC-3, 48 h
ACHN [27] = experiment: Growth inhibition of human ACHN cells at 1 uM after 48 hrs by SRB assay; values are per cent of control
HCT-15 [28] = experiment: Growth inhibition of human HCT15 cells at 0.1 uM after 48 hrs by SRB assay; values are per cent of control; settings: HCT-15, 48 h
PC-3 [29] = experiment: Growth inhibition of human PC3 cells at 0.1 uM after 48 hrs by SRB assay; values are per cent of control; settings: PC-3, 48 h
MDA-MB-231 [30] = experiment: Growth of human MDA-MB-231 cells at 1 uM after 48 hrs by SRB assay; settings: MDA-MB-231, 48 h
PC-3 [31] = experiment: Growth inhibition of human PC3 cells after 48 hrs by SRB assay; format: functional; settings: PC-3, 48 h
MDA-MB-231 [32] = experiment: Growth of human MDA-MB-231 cells at 0.1 uM after 48 hrs by SRB assay; settings: MDA-MB-231, 48 h
HCT-15 [33] = experiment: Growth of human HCT15 cells at 3 uM after 48 hrs by SRB assay; settings: HCT-15, 48 h
HCT-15 [34] = experiment: Growth inhibition of human HCT15 cells at 1 uM after 48 hrs by SRB assay; values are per cent of control; settings: HCT-15, 48 h
MDA-MB-231 [35] = experiment: Growth of human MDA-MB-231 cells at 3 uM after 48 hrs by SRB assay; values are per cent of control; settings: MDA-MB-231, 48 h
NUGC-3 [36] = experiment: Growth inhibition of human NUGC3 cells at 3 uM after 48 hrs by SRB assay; values are per cent of control; settings: NUGC-3, 48 h
MDA-MB-231 [37] = experiment: Growth of human MDA-MB-231 cells at 10 uM after 48 hrs by SRB assay; settings: MDA-MB-231, 48 h

Sequence of Rho-related GTP-binding protein RhoB (Homo sapiens) (P62745 whole entry): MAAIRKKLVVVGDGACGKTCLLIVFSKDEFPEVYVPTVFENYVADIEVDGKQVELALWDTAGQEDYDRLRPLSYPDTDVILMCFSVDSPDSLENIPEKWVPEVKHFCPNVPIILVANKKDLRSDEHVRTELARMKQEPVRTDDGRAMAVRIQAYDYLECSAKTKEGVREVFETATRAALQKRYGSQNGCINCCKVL

| SMILES | Activity [1] | GI50 (NCI-H23 [2]) [nM] | growth, % of control at 1 µM (PC-3 [3]) [%] | GI50 (HCT-15 [4]) [nM] | growth, % of control at 1 µM (NCI-H23 [5]) [%] | growth, % of control at 0.1 µM (NCI-H23 [6]) [%] | GI50 (NUGC-3 [7]) [nM] | growth, % of control at 3 µM (NCI-H23 [8]) [%] | growth, % of control at 0.3 µM (NCI-H23 [9]) [%] | growth, % of control at 0.3 µM (HCT-15 [10]) [%] | GI50 (ACHN [11]) [nM] | growth, % of control at 0.3 µM (MDA-MB-231 [12]) [%] | growth, % of control at 10 µM (HCT-15 [13]) [%] | growth, % of control at 10 µM (NUGC-3 [14]) [%] | growth, % of control at 3 µM (ACHN [15]) [%] | growth, % of control at 10 µM (ACHN [16]) [%] | growth, % of control at 0.3 µM (NUGC-3 [17]) [%] | GI50 (MDA-MB-231 [18]) [nM] | growth, % of control at 10 µM (PC-3 [19]) [%] | growth, % of control at 0.3 µM (ACHN [20]) [%] | also measured |
| --- | --- | --- | --- | --- | --- | --- | --- | --- | --- | --- | --- | --- | --- | --- | --- | --- | --- | --- | --- | --- | --- |
| CCCCCCCCCCCCCCS(=O)(=O)N(C)CCC[N+](C)(C)C | Active | 210 | 18.6 | 680 | 8 | 84.8 | 150 | -19.7 | 70.6 | 87.9 | 1010 | 98.1 | 24.8 | -12.9 | 37.8 | 27.1 | 42.8 | 1260 | -17.4 | 93.4 | growth, % of control at 1 µM (NUGC-3 [21]): 22.7%; growth, % of control at 10 µM (NCI-H23 [22]): -50.6%; growth, % of control at 3 µM (PC-3 [23]): -0.1%; growth, % of control at 0.3 µM (PC-3 [24]): 86.4%; growth, % of control at 0.1 µM (ACHN [25]): 85.3%; growth, % of control at 0.1 µM (NUGC-3 [26]): 83.9%; growth, % of control at 1 µM (ACHN [27]): 57.2%; growth, % of control at 0.1 µM (HCT-15 [28]): 92.4%; growth, % of control at 0.1 µM (PC-3 [29]): 97.1%; growth, % of control at 1 µM (MDA-MB-231 [30]): 66.6%; GI50 (PC-3 [31]): 300 nM; growth, % of control at 0.1 µM (MDA-MB-231 [32]): 102%; growth, % of control at 3 µM (HCT-15 [33]): 29.9%; growth, % of control at 1 µM (HCT-15 [34]): 46.2%; growth, % of control at 3 µM (MDA-MB-231 [35]): 42.1%; growth, % of control at 3 µM (NUGC-3 [36]): 8.5%; growth, % of control at 10 µM (MDA-MB-231 [37]): 23.5% |
| CCCCCCCCCCCCCCS(=O)(=O)N(C)CC[N+](C)(C)C | Active | 2040 | 45.1 | 750 | 86.3 | 94.5 | 390 | 59.1 | 100 | 97.5 | 1400 | 98.2 | 20.2 | 9 | 47.2 | 21.3 | 84.5 | 920 | -14.3 | 100 | growth, % of control at 1 µM (NUGC-3 [21]): 34.4%; growth, % of control at 10 µM (NCI-H23 [22]): 23.7%; growth, % of control at 3 µM (PC-3 [23]): 11.4%; growth, % of control at 0.3 µM (PC-3 [24]): 93.6%; growth, % of control at 0.1 µM (ACHN [25]): 107%; growth, % of control at 0.1 µM (NUGC-3 [26]): 92.4%; growth, % of control at 1 µM (ACHN [27]): 71.6%; growth, % of control at 0.1 µM (HCT-15 [28]): 95.7%; growth, % of control at 0.1 µM (PC-3 [29]): 92%; growth, % of control at 1 µM (MDA-MB-231 [30]): 66.3%; GI50 (PC-3 [31]): 470 nM; growth, % of control at 0.1 µM (MDA-MB-231 [32]): 99.1%; growth, % of control at 3 µM (HCT-15 [33]): 26.9%; growth, % of control at 1 µM (HCT-15 [34]): 55.6%; growth, % of control at 3 µM (MDA-MB-231 [35]): 35.3%; growth, % of control at 3 µM (NUGC-3 [36]): 18.4%; growth, % of control at 10 µM (MDA-MB-231 [37]): 7.8% |

— ChEMBL document CHEMBL2434921, “New synthetic aliphatic sulfonamido-quaternary ammonium salts as anticancer chemotherapeutic agents” (2013)
